Test results: patent publication US20100256379A1, “ANTI-VIRAL AGENT CONTAINING HETEROCYCLIC AROMATIC COMPOUND AS ACTIVE INGREDIENT” (Kagoshima University, priority 2007, published 2010)
Marks after values point to notes of the source that are not given here.

Test system: not listed separately
Assay: Cytotoxicity: inhibition of growth of uninfected MDBK cells (TetraColor One MTT)
Format: cell-based, bovine
Conditions: bovine
Method: (§1) Also, after addition of the compound according to the present invention to medium containing cells not infected with any virus, the percent inhibition of cell growth of the compound according to the present invention is measured. For example, with the use of a reagent for viable cell measurement, such as a water soluble MTT solution TetraColor One™ (Seikagaku Corporation), the percent inhibition of cell growth can be measured.
(§2) At the same time, for measurement of toxicity of each compound, the compound was added to a microtiter plate containing MDBK cells not infected with the virus as described above, followed by 3 days of culture. After 3 days of culture, TetraColor One™ was added to a microtiter plate at 10 μl per well. After 1 hour of incubation at 37° C., the microtiter plate was applied to a microplate reader and then absorbance was measured at 450 nm/690 nm.
(§3) The percent inhibition (%) of cell growth was calculated by the following formula based on the thus obtained absorbance: […]

Compound | CC50 at 3 days
Cc1cc2c(cn1)c1ccccc1n2C [Compound 11] | 21 µM
Cc1ccc2c3cnccc3n(C)c2c1 [Compound 14] | 40 µM
c1ccc2c(c1)[nH]c1ccncc12 [γ-Carboline] | 41 µM
Cc1cccc2c3cnccc3n(C)c12 [Compound 13] | 11 µM
Cc1cncc2c3ccccc3n(C)c12 [Compound 12] | 9.6 µM
Cc1ccc2c(c1)c1cnccc1n2C [Compound 15] | 7.7 µM
Cc1cccc2c1c1cnccc1n2C [Compound 16] | 6.4 µM
NC(=O)c1ncn([C@@H]2O[C@H](CO)[C@@H](O)[C@H]2O)n1 [Ribavirin, 1-β-D-ribofuranousyl-1,2,4-triazole-3-carboxamide, reference compound] | 15.1 µM
Cc1nccc2c1c1ccccc1n2C [Compound 10] | 5.2 µM

Same assay, conditions: bovine; uninfected MDBK cells, 3 days of culture, MTT readout; mean of at least two experiments

Compound | CC50 at 3 days
c1ccc2c(c1)[nH]c1cnccc12 [β-Carboline] | 87 µM

Test system: Madin-Darby bovine kidney cell (MDBK cell)
Assay: as above
Format: cell-based
Conditions: bovine, 3 days
Method: as §1, §2, §3

Compound | CC50
Cn1c2ccccc2c2cnccc21 [Compound 5] | 29 µM
Cc1cccc2c1[nH]c1ccncc12 [Compound 6] | 24 µM
Cc1ccc2c(c1)[nH]c1ccncc12 [Compound 7] | 24 µM
Cc1cc2[nH]c3ccccc3c2cn1 [Compound 3] | 70 µM
Cc1nccc2[nH]c3ccccc3c12 [Compound 1] | 9.7 µM
Cn1ccc2nc3ccccc3c-2c1 [Compound 2] | 65 µM
c1ccc2c(c1)[nH]c1cccnc12 [δ-Carboline, reference compound] | > 100 µM
Cc1ccc2[nH]c3ccncc3c2c1 [Compound 8] | 12 µM
c1ccc2c(c1)[nH]c1ncccc12 [α-Carboline, reference compound] | > 100 µM
c1ccc2c(c1)Cc1ccccc1-2 [Fluorene, reference compound] | > 100 µM
Cc1cncc2c1[nH]c1ccccc12 [Compound 4] | 21 µM
Cc1cccc2[nH]c3ccncc3c12 [Compound 9] | 16 µM

Same assay, conditions: read-out: CC50 (50% cytotoxicity concentration, 50% inhibition of cell growth); uninfected MDBK cells, 3 days of culture, MTT readout; mean of at least two experiments

Compound | CC50
c1ccc2c(c1)[nH]c1ccccc12 [Carbazole, reference compound] | > 100 µM
c1ccc2c(c1)oc1ccccc12 [Dibenzofuran, reference compound] | > 100 µM

Test system: Bovine viral diarrhea virus (BVDV) Nose strain
Assay: Anti-BVDV activity: inhibition of viral replication in BVDV-infected MDBK cells (LDH in culture supernatant)
Format: cell-based
Conditions: Bovine viral diarrhea virus isolates and strains, 72 h, read-out: EC50 (50% effective concentration, 50% inhibition of viral replication); BVDV-infected MDBK cells, MOI 0.01, 3 days of culture, LDH readout; mean of at least two experiments
Description: The antiviral activity of the compound according to the present invention can be evaluated by a method that involves infecting cells with a virus, adding the compound according to the present invention to medium before, after, or simultaneously with infection, and then measuring the percent inhibition of viral replication. Specifically, such percent inhibition of viral replication can be evaluated by measuring the activity of lactate dehydrogenase (LDH) in the culture supernatant of the virus-infected cells using an LDH cytotoxicity detection kit (Takara Biochemicals), for example. LDH is an enzyme that exists in the cytoplasm and is generally almost never released extracellularly because of the presence of cell membrane. Meanwhile, when cells are infected with a virus and then the virus replicated within the cells, infected cells die. As a result of viral infection, cell membrane is disrupted and then LDH is released into the culture supernatant. […] That is, the degree of cell disruption due to viral replication and the LDH level in the culture supernatant show extremely good positive correlation. Therefore, the antiviral activity (inhibition of viral replication) of the compound according to the present invention can be measured via quantitative determination of LDH in the culture supernatant.
Furthermore, the selectivity index (CC50/EC50) is calculated. The higher the selectivity index, the higher the effects of inhibiting viral replication alone without damaging cells. Therefore, the antiviral activity of the compound according to the present invention can be evaluated using the selectivity index as an index. Also, the antiviral activity of the compound according to the present invention can be evaluated by assay (e.g., Western blot analysis, ELISA, or flow cytometry) for measuring the viral antigen level in virus-infected cells cultured in medium containing the compound according to the present invention or assay (e.g., Northern blot analysis or quantitative RT-PCR) for measuring the virus gene (RNA) level in virus-infected cells.
1) Cell: Madin-Darby bovine kidney cell (hereinafter, referred to as “MDBK cell”);
2) Virus: Bovine viral diarrhea virus (hereinafter, referred to as “BVDV”) Nose strain;
MDBK cells (2×10^5 cells/ml) were infected with BVDV at an MOI of 0.01 (multiplicity of infection, MOI=0.01). Next, a solution containing BVDV-infected cells was dispensed into a 96-well flat bottom microtiter plate at 100 μl per well, simultaneously with the addition of a compound subjected to 5-fold serial dilution, followed by 3 days of culture at 37° C. (5% CO2).
After 3 days of culture, 50 μl of the cultured supernatant was collected and then transferred to another microtiter plate and then 50 μl of the reaction solution of an LDH cytotoxicity detection kit was added. After 30 minutes of culture at room temperature, the microtiter plate was applied to a microplate reader (BioRad Laboratories) and then absorbance was measured at 490 nm/690 nm.
The percent inhibition (%) of viral replication was calculated by the following formula based on the thus obtained absorbance:
100−[(ODT)V−(ODC)M]/[(ODC)V−(ODC)M]×100(%)

Compound | EC50
Cn1c2ccccc2c2cnccc21 [Compound 5] | 0.26 µM
Cc1cc2c(cn1)c1ccccc1n2C [Compound 11] | 0.062 µM
Cc1cccc2c1[nH]c1ccncc12 [Compound 6] | 1.7 µM
Cc1ccc2c3cnccc3n(C)c2c1 [Compound 14] | 0.3 µM
c1ccc2c(c1)[nH]c1ccncc12 [γ-Carboline] | 2.1 µM
Cc1cccc2c3cnccc3n(C)c12 [Compound 13] | 0.3 µM
Cc1cncc2c3ccccc3n(C)c12 [Compound 12] | 0.043 µM
Cc1ccc2c(c1)c1cnccc1n2C [Compound 15] | 0.35 µM
Cc1ccc2c(c1)[nH]c1ccncc12 [Compound 7] | 1.1 µM
Cc1cccc2c1c1cnccc1n2C [Compound 16] | 0.29 µM
NC(=O)c1ncn([C@@H]2O[C@H](CO)[C@@H](O)[C@H]2O)n1 [Ribavirin, 1-β-D-ribofuranousyl-1,2,4-triazole-3-carboxamide, reference compound] | 3.9 µM
Cc1cc2[nH]c3ccccc3c2cn1 [Compound 3] | 2.2 µM
Cc1nccc2[nH]c3ccccc3c12 [Compound 1] | 0.58 µM
Cn1ccc2nc3ccccc3c-2c1 [Compound 2] | 4.3 µM
c1ccc2c(c1)[nH]c1cccnc12 [δ-Carboline, reference compound] | > 100 µM
Cc1ccc2[nH]c3ccncc3c2c1 [Compound 8] | 3 µM
Cc1nccc2c1c1ccccc1n2C [Compound 10] | 0.2 µM
c1ccc2c(c1)[nH]c1ncccc12 [α-Carboline, reference compound] | 91 µM
c1ccc2c(c1)Cc1ccccc1-2 [Fluorene, reference compound] | > 100 µM
Cc1cncc2c1[nH]c1ccccc12 [Compound 4] | 0.55 µM
Cc1cccc2[nH]c3ccncc3c12 [Compound 9] | 1.2 µM

Same assay, conditions: Bovine viral diarrhea virus isolates and strains, MDBK, 72 h, read-out: EC50 (50% effective concentration, 50% inhibition of viral replication)

Compound | EC50
c1ccc2c(c1)[nH]c1ccccc12 [Carbazole, reference compound] | > 100 µM
c1ccc2c(c1)oc1ccccc12 [Dibenzofuran, reference compound] | > 100 µM
c1ccc2c(c1)[nH]c1cnccc12 [β-Carboline] | 8.5 µM

Same assay, conditions: CC50 in uninfected MDBK cells / EC50 against BVDV

Compound | Selectivity index (CC50/EC50)
Cn1c2ccccc2c2cnccc21 [Compound 5] | 111.5
Cc1cc2c(cn1)c1ccccc1n2C [Compound 11] | 338.7
Cc1cccc2c1[nH]c1ccncc12 [Compound 6] | 14.1
Cc1ccc2c3cnccc3n(C)c2c1 [Compound 14] | 133.3
c1ccc2c(c1)[nH]c1ccncc12 [γ-Carboline] | 19.5
Cc1cccc2c3cnccc3n(C)c12 [Compound 13] | 36.7
Cc1cncc2c3ccccc3n(C)c12 [Compound 12] | 223.2
Cc1ccc2c(c1)c1cnccc1n2C [Compound 15] | 22.0
Cc1ccc2c(c1)[nH]c1ccncc12 [Compound 7] | 21.8
Cc1cccc2c1c1cnccc1n2C [Compound 16] | 22.1
Cc1cc2[nH]c3ccccc3c2cn1 [Compound 3] | 31.8
Cc1nccc2[nH]c3ccccc3c12 [Compound 1] | 16.7
Cn1ccc2nc3ccccc3c-2c1 [Compound 2] | 15.1
c1ccc2c(c1)[nH]c1cnccc12 [β-Carboline] | 10.2
Cc1ccc2[nH]c3ccncc3c2c1 [Compound 8] | 4
Cc1nccc2c1c1ccccc1n2C [Compound 10] | 26.0
c1ccc2c(c1)[nH]c1ncccc12 [α-Carboline, reference compound] | >1.1
Cc1cncc2c1[nH]c1ccccc12 [Compound 4] | 38.2
Cc1cccc2[nH]c3ccncc3c12 [Compound 9] | 13.3

Same assay, conditions: interferon-α; BVDV-infected MDBK cells, MOI 0.01, 3 days, LDH readout

Compound | EC50 (50% effective concentration, 50% inhibition of viral replication)
Interferon-α | 5.5* IU/well

Same assay, conditions: summary statements on the tables

Compound | anti-BVDV effects (in words)
Cn1c2ccccc2c2cnccc21 [Compound 5] | strongest activity and the highest selectivity
Cc1cc2c(cn1)c1ccccc1n2C [Compound 11] | activity equivalent to that of compound 12 and the highest selectivity
c1ccc2c(c1)[nH]c1ccncc12 [γ-Carboline] | selective anti-BVDV effects
Cc1cncc2c3ccccc3n(C)c12 [Compound 12] | strongest activity and high selectivity
NC(=O)c1ncn([C@@H]2O[C@H](CO)[C@@H](O)[C@H]2O)n1 [Ribavirin, 1-β-D-ribofuranousyl-1,2,4-triazole-3-carboxamide, reference compound] | selective anti-BVDV effects
c1ccc2c(c1)[nH]c1cccnc12 [δ-Carboline, reference compound] | lower than those of β-carboline and γ-carboline
c1ccc2c(c1)[nH]c1cnccc12 [β-Carboline] | selective anti-BVDV effects
c1ccc2c(c1)[nH]c1ncccc12 [α-Carboline, reference compound] | lower than those of β-carboline and γ-carboline
